Experiments:
A-431 = experiment: Growth inhibition of human A431 cells after 72 hrs by trypan blue assay; type: functional; conditions: A-431, 72 h
HeLa = experiment: Growth inhibition of human HeLa cells after 72 hrs by trypan blue assay; type: functional
MSTO-211H = experiment: Growth inhibition of human MSTO-211H cells after 72 hrs by trypan blue assay; type: functional
[1] = Growth inhibition of HUVEC after 72 hrs by trypan blue assay; type: cell-based; conditions: human, HUVEC cells
[2] = molecular target: Cyclin-dependent kinase 1/cyclin B1 (Homo sapiens) (UniProt P06493+P14635); experiment: Inhibition of recombinant human CDK1/Cyclin B at 10^-5 M using Ulight-CFFKNIVTPRTPPPSQGK-amide as substrate measured after 15 mins by LANCE assay relative to control; type: protein-complex assay
[3] = molecular target: Platelet-derived growth factor receptor beta (Homo sapiens) (UniProt P09619); experiment: Inhibition of recombinant human PDGFRbeta at 10^-5 M using Ulight-Poly GAT[EAY(1:1:1)]n as substrate measured after 30 mins by LANCE assay relative to control
[4] = molecular target: Epidermal growth factor receptor (Homo sapiens) (UniProt P00533); experiment: Inhibition of recombinant human EGFR at 10^-5 M using Ulight-CAGAGAIETDKEYYTVKD as substrate measured after 15 mins by LANCE assay relative to control
[5] = molecular target: Vascular endothelial growth factor receptor 2 (Homo sapiens, UniProt P35968); experiment: Inhibition of recombinant human His-tagged KDR cytoplasmic domain (789 to 1356 residues) expressed in baculovirus expression system using Z'-LYTE-Tyr1 as substrate measured after 1 hr by Z'-LYTE assay
[6] = molecular target: Proto-oncogene tyrosine-protein kinase Src (Homo sapiens) (UniProt P12931); experiment: Inhibition of recombinant human Src at 10^-5 M using Ulight-Poly GAT[EAY(1:1:1)]n as substrate measured after 10 mins by LANCE assay relative to control
[7] = molecular target: RAF proto-oncogene serine/threonine-protein kinase (Homo sapiens) (UniProt P04049); experiment: Inhibition of recombinant human RAF1 at 10^-5 M relative to control
[8] = molecular target: T1, Aurora kinase A (Homo sapiens) (UniProt O14965); experiment: Inhibition of recombinant human Aurora-A at 10^-5 M using Ulight-RRRSLLE as substrate measured after 15 mins by LANCE assay relative to control
T1 sequence (whole entry): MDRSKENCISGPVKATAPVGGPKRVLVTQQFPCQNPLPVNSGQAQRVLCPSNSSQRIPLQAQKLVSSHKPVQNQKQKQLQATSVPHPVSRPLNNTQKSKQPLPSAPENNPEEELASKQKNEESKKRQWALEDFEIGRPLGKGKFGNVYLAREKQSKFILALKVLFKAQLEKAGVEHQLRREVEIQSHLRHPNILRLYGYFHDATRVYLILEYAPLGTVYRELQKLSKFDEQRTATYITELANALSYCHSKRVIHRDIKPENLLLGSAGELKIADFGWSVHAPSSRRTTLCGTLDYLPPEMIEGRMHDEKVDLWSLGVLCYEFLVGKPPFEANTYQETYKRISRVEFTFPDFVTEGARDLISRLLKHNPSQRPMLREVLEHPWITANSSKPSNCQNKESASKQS

Chain of RAF proto-oncogene serine/threonine-protein kinase (Homo sapiens) (P04049 whole entry): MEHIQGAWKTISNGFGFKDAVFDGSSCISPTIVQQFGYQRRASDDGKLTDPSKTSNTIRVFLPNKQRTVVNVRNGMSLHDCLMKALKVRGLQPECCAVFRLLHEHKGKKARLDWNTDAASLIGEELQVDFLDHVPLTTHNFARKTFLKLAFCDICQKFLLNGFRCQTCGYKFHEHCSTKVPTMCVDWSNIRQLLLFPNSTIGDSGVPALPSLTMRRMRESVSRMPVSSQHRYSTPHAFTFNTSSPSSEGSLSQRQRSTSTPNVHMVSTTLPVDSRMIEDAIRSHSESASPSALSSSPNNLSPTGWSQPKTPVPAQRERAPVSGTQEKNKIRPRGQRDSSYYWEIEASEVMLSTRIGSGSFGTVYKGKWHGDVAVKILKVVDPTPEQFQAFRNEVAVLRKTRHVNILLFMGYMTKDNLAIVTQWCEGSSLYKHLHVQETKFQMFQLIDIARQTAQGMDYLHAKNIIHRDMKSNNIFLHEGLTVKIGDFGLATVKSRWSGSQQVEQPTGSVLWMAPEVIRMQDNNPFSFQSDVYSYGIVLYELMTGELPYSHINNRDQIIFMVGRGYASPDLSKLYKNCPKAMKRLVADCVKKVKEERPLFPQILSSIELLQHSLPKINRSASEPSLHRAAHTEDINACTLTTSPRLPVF
Chain of Epidermal growth factor receptor (Homo sapiens) (P00533 whole entry, the tested form may be a part): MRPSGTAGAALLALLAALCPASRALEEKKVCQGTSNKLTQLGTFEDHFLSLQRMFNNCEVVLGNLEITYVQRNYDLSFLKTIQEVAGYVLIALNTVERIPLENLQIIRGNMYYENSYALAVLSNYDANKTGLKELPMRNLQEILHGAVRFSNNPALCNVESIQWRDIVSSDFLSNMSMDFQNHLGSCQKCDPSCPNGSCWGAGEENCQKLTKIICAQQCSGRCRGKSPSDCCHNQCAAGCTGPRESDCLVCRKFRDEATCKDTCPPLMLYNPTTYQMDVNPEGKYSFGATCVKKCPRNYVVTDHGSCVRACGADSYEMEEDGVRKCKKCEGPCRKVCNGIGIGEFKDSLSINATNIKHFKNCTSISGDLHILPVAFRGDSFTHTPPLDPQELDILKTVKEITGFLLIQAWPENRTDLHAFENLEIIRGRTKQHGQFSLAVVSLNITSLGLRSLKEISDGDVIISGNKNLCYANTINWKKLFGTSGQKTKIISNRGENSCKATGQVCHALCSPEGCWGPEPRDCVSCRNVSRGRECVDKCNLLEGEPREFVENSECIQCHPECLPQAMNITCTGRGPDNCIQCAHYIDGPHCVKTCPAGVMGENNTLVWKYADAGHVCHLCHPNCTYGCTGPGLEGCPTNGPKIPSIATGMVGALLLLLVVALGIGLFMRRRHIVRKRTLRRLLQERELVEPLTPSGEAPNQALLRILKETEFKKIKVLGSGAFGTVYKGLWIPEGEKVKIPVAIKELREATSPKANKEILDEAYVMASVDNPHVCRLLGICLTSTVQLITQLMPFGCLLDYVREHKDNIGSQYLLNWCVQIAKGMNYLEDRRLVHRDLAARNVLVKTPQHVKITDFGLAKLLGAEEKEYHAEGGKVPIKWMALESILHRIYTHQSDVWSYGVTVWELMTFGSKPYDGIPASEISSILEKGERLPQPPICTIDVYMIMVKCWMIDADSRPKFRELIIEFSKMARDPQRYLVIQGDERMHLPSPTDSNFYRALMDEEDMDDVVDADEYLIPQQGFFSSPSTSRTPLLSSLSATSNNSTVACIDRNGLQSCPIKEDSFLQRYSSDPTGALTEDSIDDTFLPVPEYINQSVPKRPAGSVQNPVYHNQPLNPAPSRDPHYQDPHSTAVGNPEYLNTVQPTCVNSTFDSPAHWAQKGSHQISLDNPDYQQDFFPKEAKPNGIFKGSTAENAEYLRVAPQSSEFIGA
Chain of Vascular endothelial growth factor receptor 2 (P35968 whole entry, the tested form may be a part): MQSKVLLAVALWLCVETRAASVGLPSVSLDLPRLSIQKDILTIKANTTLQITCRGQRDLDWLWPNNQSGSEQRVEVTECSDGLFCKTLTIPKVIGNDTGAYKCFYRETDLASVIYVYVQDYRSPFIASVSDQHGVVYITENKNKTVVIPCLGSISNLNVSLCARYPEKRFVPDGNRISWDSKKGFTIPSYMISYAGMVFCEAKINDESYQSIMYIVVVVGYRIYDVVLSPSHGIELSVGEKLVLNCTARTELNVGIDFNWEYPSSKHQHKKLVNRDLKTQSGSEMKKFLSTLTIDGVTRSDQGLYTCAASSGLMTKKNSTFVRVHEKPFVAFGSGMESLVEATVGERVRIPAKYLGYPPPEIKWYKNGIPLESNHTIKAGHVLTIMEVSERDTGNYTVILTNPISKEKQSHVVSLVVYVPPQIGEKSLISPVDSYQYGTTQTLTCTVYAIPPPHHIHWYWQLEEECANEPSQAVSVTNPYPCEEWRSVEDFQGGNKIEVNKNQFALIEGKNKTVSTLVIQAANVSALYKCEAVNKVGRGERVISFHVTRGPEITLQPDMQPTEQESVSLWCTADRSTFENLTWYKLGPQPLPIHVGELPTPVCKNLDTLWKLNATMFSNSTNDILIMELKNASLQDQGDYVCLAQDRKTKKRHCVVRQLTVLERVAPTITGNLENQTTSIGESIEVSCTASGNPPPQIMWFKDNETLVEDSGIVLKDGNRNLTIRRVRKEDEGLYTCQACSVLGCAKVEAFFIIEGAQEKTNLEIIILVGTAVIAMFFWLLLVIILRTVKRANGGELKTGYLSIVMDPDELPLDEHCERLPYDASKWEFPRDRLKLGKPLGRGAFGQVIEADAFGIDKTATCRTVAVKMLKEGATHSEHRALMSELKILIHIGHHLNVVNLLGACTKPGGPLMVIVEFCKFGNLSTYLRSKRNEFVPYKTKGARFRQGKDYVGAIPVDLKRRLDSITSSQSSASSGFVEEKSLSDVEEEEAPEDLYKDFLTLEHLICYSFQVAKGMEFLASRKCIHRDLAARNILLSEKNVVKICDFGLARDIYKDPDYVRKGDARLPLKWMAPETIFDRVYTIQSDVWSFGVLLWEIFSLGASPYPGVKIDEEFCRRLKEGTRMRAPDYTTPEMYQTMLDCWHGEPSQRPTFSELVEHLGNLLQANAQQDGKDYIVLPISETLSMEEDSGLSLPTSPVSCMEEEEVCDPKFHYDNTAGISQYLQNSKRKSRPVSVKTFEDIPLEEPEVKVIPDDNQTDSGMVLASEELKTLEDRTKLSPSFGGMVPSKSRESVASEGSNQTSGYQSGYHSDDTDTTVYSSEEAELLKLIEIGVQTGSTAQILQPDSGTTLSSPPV
Chain of Platelet-derived growth factor receptor beta (Homo sapiens) (P09619 whole entry): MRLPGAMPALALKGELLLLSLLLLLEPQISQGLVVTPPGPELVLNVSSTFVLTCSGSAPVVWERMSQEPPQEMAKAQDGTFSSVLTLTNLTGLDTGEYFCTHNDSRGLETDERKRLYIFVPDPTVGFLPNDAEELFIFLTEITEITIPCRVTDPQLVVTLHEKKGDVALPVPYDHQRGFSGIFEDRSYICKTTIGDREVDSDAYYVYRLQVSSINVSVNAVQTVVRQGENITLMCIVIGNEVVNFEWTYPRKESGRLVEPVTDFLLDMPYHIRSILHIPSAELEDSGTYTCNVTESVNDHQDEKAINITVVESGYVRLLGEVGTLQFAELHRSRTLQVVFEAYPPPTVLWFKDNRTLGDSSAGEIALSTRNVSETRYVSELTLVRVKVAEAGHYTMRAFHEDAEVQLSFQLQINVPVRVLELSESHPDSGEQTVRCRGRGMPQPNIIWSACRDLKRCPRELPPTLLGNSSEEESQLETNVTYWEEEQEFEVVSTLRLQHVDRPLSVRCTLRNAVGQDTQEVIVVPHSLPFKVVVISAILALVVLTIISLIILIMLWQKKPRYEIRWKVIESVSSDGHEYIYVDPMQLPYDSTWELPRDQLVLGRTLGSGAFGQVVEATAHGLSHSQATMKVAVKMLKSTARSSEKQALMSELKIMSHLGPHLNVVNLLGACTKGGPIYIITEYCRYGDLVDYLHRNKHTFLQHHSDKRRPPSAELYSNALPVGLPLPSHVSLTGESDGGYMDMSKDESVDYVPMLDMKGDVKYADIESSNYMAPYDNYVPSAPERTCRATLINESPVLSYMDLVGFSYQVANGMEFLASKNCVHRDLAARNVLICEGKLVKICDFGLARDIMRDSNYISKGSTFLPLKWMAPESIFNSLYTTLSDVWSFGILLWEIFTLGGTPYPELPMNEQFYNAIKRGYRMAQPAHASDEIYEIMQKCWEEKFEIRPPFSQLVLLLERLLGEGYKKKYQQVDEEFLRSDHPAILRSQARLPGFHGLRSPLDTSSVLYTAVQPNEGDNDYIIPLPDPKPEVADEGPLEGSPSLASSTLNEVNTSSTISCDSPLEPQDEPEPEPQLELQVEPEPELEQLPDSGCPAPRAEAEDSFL
Chain of Proto-oncogene tyrosine-protein kinase Src (Homo sapiens) (P12931 2-536 limits assumed): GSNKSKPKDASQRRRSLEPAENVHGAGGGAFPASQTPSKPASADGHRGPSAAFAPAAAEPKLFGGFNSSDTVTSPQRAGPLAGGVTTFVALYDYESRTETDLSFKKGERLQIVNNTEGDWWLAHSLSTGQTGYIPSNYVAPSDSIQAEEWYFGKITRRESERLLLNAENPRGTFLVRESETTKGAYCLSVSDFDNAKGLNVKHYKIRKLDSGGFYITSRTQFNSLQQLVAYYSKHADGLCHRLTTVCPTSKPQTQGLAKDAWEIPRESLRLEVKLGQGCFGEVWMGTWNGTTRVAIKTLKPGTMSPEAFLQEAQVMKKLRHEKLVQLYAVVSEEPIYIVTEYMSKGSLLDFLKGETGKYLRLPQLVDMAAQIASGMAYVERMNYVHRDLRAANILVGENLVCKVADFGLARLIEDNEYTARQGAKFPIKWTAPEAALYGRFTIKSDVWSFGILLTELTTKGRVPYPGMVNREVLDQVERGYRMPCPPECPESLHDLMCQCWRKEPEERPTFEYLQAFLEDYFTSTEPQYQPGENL

Structure (SMILES) | GI50 (A-431) [µM] | GI50 (HeLa) [µM] | inhibition [2] [%] | inhibition [3] [%] | inhibition [4] [%] | IC50 [5] [µM] | inhibition [6] [%] | inhibition [7] [%] | inhibition [8] [%] | GI50 (MSTO-211H) [µM] | GI50 at 72 h [1] [µM]
COc1cc(Nc2ncc3c(n2)-c2ccc(Cl)cc2SC3)cc(OC)c1OC | 4.27 | 3.46 |  |  |  |  |  |  |  | 3.4 | 2.54
COc1ccc2c(c1)SCc1cnc(Nc3cccc(C(F)(F)F)c3)nc1-2 | 6.24 | 6.02 |  |  |  |  |  |  |  | 9.04 | 4.55
COc1ccc2c(c1)SCc1cnc(Nc3ccc(OC)c(OC)c3)nc1-2 | 6.06 | 18.8 |  |  |  |  |  |  |  | > 20 | 10.8
Cc1cc(C)c(/C=C2\C(=O)Nc3ccccc32)[nH]1 [SEMAXANIB] | 37 | 38 |  |  |  |  |  |  |  | 27 | 
FC(F)(F)c1cccc(Nc2ncc3c(n2)-c2ccccc2SC3)c1 | 13.5 | > 20 |  |  |  |  |  |  |  | 11.8 | 5.02
COc1cc(Nc2ncc3c(n2)-c2ccccc2SC3)cc(OC)c1OC | 1.92 | 1.26 |  |  |  |  |  |  |  | 1.08 | 1.99
COc1cccc(Nc2ncc3c(n2)-c2ccc(OC)cc2SC3)c1 | 2.1 | 2.8 |  |  |  |  |  |  |  | 2.57 | 2.49
COc1ccc(Nc2ncc3c(n2)-c2ccccc2SC3)cc1OC | 2.32 | 1.5 | 47.4 | 39.9 | 6.5 | 0.11 | 53 | 6.1 | 88.6 | 1.63 | 1.5
COc1ccc2c(c1)SCc1cnc(Nc3cc(OC)c(OC)c(OC)c3)nc1-2 | 1.75 | 0.63 |  |  |  |  |  |  |  | 0.92 | 3.71
Fc1cccc(Nc2ncc3c(n2)-c2ccccc2SC3)c1 | 9.76 | 14 |  |  |  |  |  |  |  | 2.06 | 4.51
COc1cccc(Nc2ncc3c(n2)-c2ccccc2SC3)c1 | 9.43 | 6.03 |  |  |  |  |  |  |  | 0.8 | 0.8

Continued, in another order:

GI50 (A-431) [µM] | GI50 (HeLa) [µM] | inhibition [2] [%] | inhibition [3] [%] | inhibition [4] [%] | IC50 [5] [µM] | inhibition [6] [%] | inhibition [7] [%] | inhibition [8] [%] | Structure (SMILES) | GI50 (MSTO-211H) [µM] | GI50 at 72 h [1] [µM]
> 20 | > 20 |  |  |  |  |  |  |  | Clc1cccc(Nc2ncc3c(n2)-c2ccc(Cl)cc2SC3)c1 | 7.78 | 16.5
10.6 | > 20 |  |  |  |  |  |  |  | Brc1cccc(Nc2ncc3c(n2)-c2ccccc2SC3)c1 | 7.67 | 7
2.23 | 3.42 |  |  |  |  |  |  |  | COc1ccc(Nc2ncc3c(n2)-c2ccc(Cl)cc2SC3)cc1OC | 4.4 | 2.53
10.4 | > 20 |  |  |  |  |  |  |  | Clc1cccc(Nc2ncc3c(n2)-c2ccccc2SC3)c1 | 6.1 | 7.13
8.25 | 11.9 |  |  |  |  |  |  |  | COc1ccc2c(c1)SCc1cnc(Nc3cccc(Cl)c3)nc1-2 | 5.6 | 11.2
4.77 | 2.93 |  |  |  |  |  |  |  | COc1ccc2c(c1)SCc1cnc(Nc3cccc(Br)c3)nc1-2 | 2.2 | 1.89
16.8 | > 20 |  |  |  |  |  |  |  | COc1cccc(Nc2ncc3c(n2)-c2ccc(Cl)cc2SC3)c1 | 6.83 | 14.2
15.5 | 10.3 |  |  |  |  |  |  |  | COc1ccc2c(c1)SCc1cnc(Nc3cccc(F)c3)nc1-2 | 13 | 11.5
17 | > 20 |  |  |  |  |  |  |  | Clc1ccc2c(c1)SCc1cnc(Nc3cccc(Br)c3)nc1-2 | 8.5 | 7.11
18.2 | 20 |  |  |  |  |  |  |  | Fc1cccc(Nc2ncc3c(n2)-c2ccc(Cl)cc2SC3)c1 | > 20 | 18.2
10 | > 20 |  |  |  |  |  |  |  | FC(F)(F)c1cccc(Nc2ncc3c(n2)-c2ccc(Cl)cc2SC3)c1 | 3.18 | 10.5

— ChEMBL document CHEMBL4229346, “New insights in the structure-activity relationships of 2-phenylamino-substituted benzothiopyrano[4,3-d]pyrimidines as kinase inhibitors” (Eur J Med Chem, 2018)
